According to patent US20240269123A1, “MUSCLE REGENERATION PROMOTER” (priority 2021, published 2024):
Counter-ions that a name gives are not always drawn.

How the values were obtained:
histamine H3 receptor = conditions: statement taken from the literature; cited from earlier work
[1] = tested on: tibialis anterior muscle damaged by snake venom cardiotoxin (CTX); experiment: Muscle regeneration in cardiotoxin (CTX) muscle-damage model mouse, regenerated single muscle fiber area; assay type: in vivo, mouse (C57BL/6); conditions: once a day; for increase in the mean muscle fiber area as compared with the Vehicle administration group: day before CTX to 6 days after CTX, muscle collected 7 days after CTX; for histogram of the regenerated single-muscle fiber area as compared with the Vehicle administration group: 7 days after CTX
Method: Seven-week old C57BL/6 Male mice (CLEA Japan, Inc.) were purchased, and used for experiment at the age of 8 weeks.
A model animal to which muscle damage had been caused by administration of snake venom cardiotoxin (CTX) was used. The muscle-damaged model animal has been widely used in studies on the regeneration from muscle damage.
Under the anesthesia with isoflurane, 50 μL of 10 μM CTX was administered to the tibialis anterior muscle of the right hindlimb of the mouse. After 7 days of the administration of CTX, the tibialis anterior muscle was collected by dissection, and supplied to the preparation of a muscle tissue section.
Immediately after the collection of the tibialis anterior muscle, the tibialis anterior muscle was immersed in isopentane cooled with liquid nitrogen and was rapidly frozen. The frozen muscle tissue was cut into slices each having a thickness of 10 μm by using a cryostat (Leica Biosystems), and the slice was attached onto an antistripping coated slide glass (Matsunami Glass Ind., Ltd.).
A muscle tissue section was sufficiently air dried for 30 minutes under room temperature. After that, the muscle tissue section was fixed by immersing it in acetone cooled to −30° C. and treating at −30° ° C. for 20 minutes. The fixed section was air dried once and washed with PBS. Then the section was blocked by dropwisely adding a blocking reagent (Blocking One, NACALAI TESQUE, INC.) to the section and being subjected to the blocking treatment for 1 hour. Next, a primary antibody (Anti-laminin-2 (α-2 Chain) antibody, Rat monoclonal (Sigma-Aldrich)) obtained by being diluted 500 times with the blocking reagent was added dropwise, and the reaction was conducted at overnight at 4° C. Since laminin to which a primary antibody binds is a protein expressed in all muscle cells, the primary antibody was used in this experiment in order to measure the area of individual muscle cells in a section. The muscle tissue section after the reaction with the primary antibody was washed with PBS, and then was reacted for 1 hour with a secondary antibody (CF 488A Goat Anti-Rat IgG (H+L) (Biotium)) obtained by being diluted 500 times with the blocking reagent. The secondary antibody that is an anti-rat antibody conjugated with a fluorescent dye binds to the primary antibody, and stains the laminin. The muscle tissue section after the reaction with the secondary antibody was washed with PBS, and sealed by using “[…] Hard. Set with DAPI” (Vector), and then the fluorescence observation was performed with an inverted microscope FSX100 (Olympus). The “[…] Hard Set with DAPI” was used for staining the central nucleus of muscle cells.
The muscle regeneration was evaluated on the basis of the image data taken from the fluorescence observation. In this experiment, muscle cells each having a central nucleus (single muscle fiber having a central nuclei) were used as an indicator for regenerated muscle. After the image data was taken into image analysis software ImageJ (NIH), a muscle cell having a central nucleus was extracted. The cross-sectional area of the extracted individual cells was measured on the basis of the cell membrane stained with laminin. For the area measurement, “Analyze Particles” that is an add-in analysis program on ImageJ was used. The measurement results were shown as a distribution chart (histogram) of the areas and number of regenerated single-muscle fibers, and as an average value of the cross-sectional areas of all the regenerated single muscle fibers (mean muscle fiber area). […]

[2] = 1 μM in PBS, 10 μL intramuscular
[3] = 6.3 mM in PBS with 5% tween 20, 10 μL intramuscular

| Structure (SMILES) | selectivity of agonist activity for the histamine H3 receptor over other histamine receptors (histamine H3 receptor) | histogram of the regenerated single-muscle fiber area as compared with the Vehicle administration group [1, 2] | other results |
| --- | --- | --- | --- |
| CN1CCC(Cc2c[nH]cn2)CC1 [Compound 15, 4-[(1H-imidazol-4-yl)methyl]-1-methylpiperidine] | selective histamine H3 receptor agonist | – | – |
| c1nc(CC2CCNCC2)c[nH]1 [Compound 13, 4-[(1H-imidazol-4-yl)methyl]piperidine] | selective histamine H3 receptor agonist | – | – |
| c1cc(Cc2c[nH]cn2)ccn1 [Compound 5, 4-[(1H-imidazol-4-yl)methyl]pyridine] | selective histamine H3 receptor agonist | – | – |
| CNCCc1c[nH]cn1 [Compound 4, 2-(1H-imidazol-4-yl)-N-methylethan-1-amine] | non-selective histamine H3 receptor agonist | – | – |
| CNCCc1c[nH]cn1 [N^α-methylhistamine dihydrochloride, 2-(1H-imidazol-4-yl)-N-methylethan-1-amine] | – | shifted to the right side | increase in the mean muscle fiber area as compared with the Vehicle administration group [1, 2]: 7.1% |
| C[C@@H](N)Cc1c[nH]cn1 [Compound 1, (2R)-1-(1H-imidazol-4-yl)propan-2-amine] | selective histamine H3 receptor agonist | – | – |
| CCCNC1CN(c2ccnc(N)n2)C1 [Compound 20, 4-[3-(propylamino)azetidin-1-yl]pyrimidin-2-amine] | selective histamine H3 receptor agonist | – | – |
| C[C@@H](N)Cc1c[nH]cn1 [R-α-methylhistamine dihydrochloride, (2R)-1-(1H-imidazol-4-yl)propan-2-amine] | – | – | increase in the mean muscle fiber area as compared with the Vehicle administration group [1, 3]: 12.3%; histogram of the regenerated single-muscle fiber area as compared with the Vehicle administration group [1, 3]: shifted to the right side |
| c1cc(Cc2c[nH]cn2)ccn1 [Immethridine dihydrobromide, 4-[(1H-imidazol-4-yl)methyl]pyridine] | – | shifted to the right side | increase in the mean muscle fiber area as compared with the Vehicle administration group [1, 2]: 14.0% |
| N=C(N)SCCc1c[nH]cn1 [Imetit dihydrobromide, 2-(1H-imidazol-4-yl)ethyl carbamimidothioate] | – | shifted to the right side | increase in the mean muscle fiber area as compared with the Vehicle administration group ([1]; 1 μM in PBS, 10 μL intramuscular, unit not given): 13.18 |
